Measured values published in patent US10220029B2, “Pharmaceutical composition comprising glutarimide derivatives and use thereof in the treatment of eosinophilic diseases” (OBSCHESTVO S ORGANICHENNOI OTVETSTVENNOSTIYU …, priority 2013, dated 2019).
Marks after values point to notes of the source that are not given here.

Assays:
[1] = tested on: model of sephadex-induced eosinophilic lung inflammation in rats; assay: Content of cell elements in BAL in the model of sephadex-induced eosinophilic lung inflammation in rats; assay type: in vivo, male Wistar rats; settings: Table 8, four times, BAL 48 hours after sephadex, n = 10
Procedure: The model of sephadex-induced eosinophilic lung inflammation in rats was realized by a standard method [Evaldsson C, Rydén I, Uppugunduri S. Isomaltitol exacerbates neutrophilia but reduces eosinophilia: new insights into the sephadex model of lung inflammation//Int Arch Allergy Immunol. 2011; 154(4):286-94]. Sephadex G-200 (Pharmacia, Sweden) was administered one time by inhalation to male Wistar rats at a dose of 5 mg/kg. The studied compounds were administered to the animals by the intragastric route four times: 24 hours and 1 hour before and 24 hours and 45 hours after administration of sephadex. The reference preparation, budesonide, was administered according to the same scheme, by inhalation at a dose of 0.5 mg/kg. Bronchoalveolar lavage was taken 48 hours after the inhalation of sephadex, and the total lymphocyte count and leukocyte formula in the lavage were determined. The number of rats in a group was 7 to 10.

[2] = tested on: model of bronchial asthma in guinea pigs; assay: Content of cell elements in BAL in the model of bronchial asthma in guinea pigs; assay type: in vivo, guinea pig
Procedure: (§1) Bronchial asthma in guinea pigs was induced by a standard method [Ricciardolo F L, Nijkamp F, De Rose V, Folkerts G. The guinea pig as an animal model for asthma// Current Drug Targets. 2008 June; 9(6):452-65]. The animals were immunized by one parenteral administration of 0.5 mL of a solution comprising 100 μg/mL ovalbumin (Sigma) and 100 mg/mL aluminium hydroxide. Intact animals received a physiological saline solution in an amount of 0.5 mL.
(§2) On days 29, 30 and 31, hyperactivity of the respiratory airways was provoked by inhalation administration of ovalbumin in ascending concentrations of 0.1, 0.3, and 0.5 mg/mL on days 1, 2, and 3 of the provocation, respectively. The inhalation lasted 5 minutes or until asphyxia symptoms became apparent (fall to one side). On day 32, the animals received a challenging dose of ovalbumin (1 mg/mL) for 5 minutes, while assessing a bronchospastic reaction.
(§3) The studied compounds were administered to the animals once daily every day for 6 or 10 days; the administration was terminated two days before the administration of the challenging dose of antigen.
The bronchoalveolar lavage (BAL) and cardiac cavity blood were derived from the animals 24 hours after administration of the challenging dose. The BAL was collected under anesthesia by lavaging the lungs with 5 mL of a physiological saline solution heated to 37° C. through the trachea, using a syringe dosing device.
The absolute number of cell elements in 1 μL of the lavage (cytosis) was counted in the bronchoalveolar lavage, using the Goryaev camera. Then, the BAL was centrifuged at 200 g for 10 minutes. The residue was used to prepare swabs that were fixed in methanol and stained according to Romanovsky-Giemsa to count endopulmonary cytogram.
(§4) The study comprised 3 experiments, wherein the first one was directed to the evaluation of the effect of claimed compounds 1-6 on the cell composition of the BAL, the second and the third experiments were aimed at evaluating the effect of compounds 1 and 2 on the cell composition of the BAL, the cell composition of the blood, and on the bronchospasm severity.

[3] = tested on: model of atopic dermatitis in mice; assay: Response index in DNCB-induced atopic (allopathic) dermatitis in mice; assay type: in vivo, male Balb/c mice; settings: n = 12
Procedure: The model of allopathic dermatitis was realized by a standard method [Mechanism of dinitrochlorobenzene-induced dermatitis in mice: role of specific antibodies in pathogenesis//PLoS One. 2009; 4(11)].
On days 0 and 12 of the study, 100 μL of a 2% solution of 1-chloro-2,4-dinitrobenzene (DNCB, Sigma-Aldrich, US) in 95% ethanol was applied to shaved sites in the backs of male Balb/c mice. On day 17 of the study, to the right “studied” ear of the animals, 20 μL of the alcohol solution of 2% DNCB was applied two times with a one-hour interval. The studied compound and the reference preparation, dexamethasone, were administered by the intragastric route once daily on days 8-17 of the study.
On day 18 of the study, the animals were euthanized in a CO2 camera. The weights of the “studied” and “control” ears were measured. A response index (RI) expressed in percentage of a difference in the weights of the “studied” and “control” ears was calculated.

[4] = tested on: model of bronchial asthma in guinea pigs; assay: Severity of bronchospasm in the model of bronchial asthma in guinea pigs; assay type: in vivo, guinea pig; settings: Experiment No. 1, 10 times, n = 8
Procedure: as §1, §2, §3
The bronchospastic reaction was assessed by a change in the rate and depth of the respiratory movements and by the asphyxia symptom such as fall to one side. Spirogram was registered by laboratory experimental equipment (ADInstruments, Australia), using a base recording station (PowerLab 8sp.) and software LabCart. The registration was made using airflow sensors for laboratory animals and a spirograph with an integrated amplifier (ADInstruments).
as §4

[5] = Table 4, 14 mg/kg, 10 times of administration, n = 9
[6] = Table 5 Experiment No. 1, 0.045 mg/kg, 10 times, n = 8
[7] = Table 5 Experiment No. 1, 0.14 mg/kg, 10 times, n = 8
[8] = Table 5 Experiment No. 1, 14 mg/kg, 10 times, n = 8

Structure (SMILES): O=C1CCCC(=O)N1CCc1cnc[nH]1 [Compound 1, 1-(2-(1H-imidazol-4-yl)ethyl)piperidine-2,6-dione]
- Eosinophils, content of cell elements in 1 μL of BAL ([1]; 0.06 mg/kg intragastric): 118 ± 27*& in 1 μL of BAL
- Leukocytes, content of cell elements in 1 μL of BAL ([1]; 0.06 mg/kg intragastric): 2500 ± 307 in 1 μL of BAL
- Lymphocytes, content of cell elements in 1 μL of BAL ([1]; 0.06 mg/kg intragastric): 128 ± 48 in 1 μL of BAL
- Macrophages, content of cell elements in 1 μL of BAL ([1]; 0.06 mg/kg intragastric): 1417 ± 131 in 1 μL of BAL
- Neutrophils, content of cell elements in 1 μL of BAL ([1]; 0.06 mg/kg intragastric): 837 ± 231 in 1 μL of BAL
- Eosinophils, content of cell elements in 1 μL of BAL ([1]; 0.18 mg/kg intragastric): 174 ± 64*& in 1 μL of BAL
- Leukocytes, content of cell elements in 1 μL of BAL ([1]; 0.18 mg/kg intragastric): 2665 ± 455 in 1 μL of BAL
- Lymphocytes, content of cell elements in 1 μL of BAL ([1]; 0.18 mg/kg intragastric): 143 ± 54 in 1 μL of BAL
- Macrophages, content of cell elements in 1 μL of BAL ([1]; 0.18 mg/kg intragastric): 1661 ± 260 in 1 μL of BAL
- Neutrophils, content of cell elements in 1 μL of BAL ([1]; 0.18 mg/kg intragastric): 597 ± 168 in 1 μL of BAL
- Eosinophils, content of cell elements in 1 μL of BAL ([1]; 0.54 mg/kg intragastric): 126 ± 43*& in 1 μL of BAL
- Leukocytes, content of cell elements in 1 μL of BAL ([1]; 0.54 mg/kg intragastric): 2120 ± 218*& in 1 μL of BAL
- Lymphocytes, content of cell elements in 1 μL of BAL ([1]; 0.54 mg/kg intragastric): 196 ± 63 in 1 μL of BAL
- Macrophages, content of cell elements in 1 μL of BAL ([1]; 0.54 mg/kg intragastric): 1446 ± 113 in 1 μL of BAL
- Neutrophils, content of cell elements in 1 μL of BAL ([1]; 0.54 mg/kg intragastric): 352 ± 135 in 1 μL of BAL
- Eosinophils, content of cell elements in 1 μL of BAL ([1]; 1.8 mg/kg intragastric): 129 ± 44*& in 1 μL of BAL
- Leukocytes, content of cell elements in 1 μL of BAL ([1]; 1.8 mg/kg intragastric): 1915 ± 250*& in 1 μL of BAL
- Lymphocytes, content of cell elements in 1 μL of BAL ([1]; 1.8 mg/kg intragastric): 122 ± 49 in 1 μL of BAL
- Macrophages, content of cell elements in 1 μL of BAL ([1]; 1.8 mg/kg intragastric): 1214 ± 130 in 1 μL of BAL
- Neutrophils, content of cell elements in 1 μL of BAL ([1]; 1.8 mg/kg intragastric): 451 ± 149 in 1 μL of BAL
- Eosinophils, content of cell elements in 1 μL of BAL ([1]; 5.4 mg/kg intragastric): 152 ± 56*& in 1 μL of BAL
- Leukocytes, content of cell elements in 1 μL of BAL ([1]; 5.4 mg/kg intragastric): 2340 ± 322 in 1 μL of BAL
- Lymphocytes, content of cell elements in 1 μL of BAL ([1]; 5.4 mg/kg intragastric): 170 ± 45 in 1 μL of BAL
- Macrophages, content of cell elements in 1 μL of BAL ([1]; 5.4 mg/kg intragastric): 1525 ± 199 in 1 μL of BAL
- Neutrophils, content of cell elements in 1 μL of BAL ([1]; 5.4 mg/kg intragastric): 492 ± 129 in 1 μL of BAL
- Eosinophils, content of cell elements in 1 μL of BAL ([1]; 18 mg/kg intragastric): 69 ± 22*& in 1 μL of BAL
- Leukocytes, content of cell elements in 1 μL of BAL ([1]; 18 mg/kg intragastric): 2135 ± 205*& in 1 μL of BAL
- Lymphocytes, content of cell elements in 1 μL of BAL ([1]; 18 mg/kg intragastric): 168 ± 44 in 1 μL of BAL
- Macrophages, content of cell elements in 1 μL of BAL ([1]; 18 mg/kg intragastric): 1601 ± 134 in 1 μL of BAL
- Neutrophils, content of cell elements in 1 μL of BAL ([1]; 18 mg/kg intragastric): 297 ± 89*& in 1 μL of BAL
- Eosinophils in BAL [2, 5]: 0.89 ± 0.23*& 10^9/L
- Lymphocytes in BAL [2, 5]: 0.70 ± 0.13* 10^9/L
- Monocytes in BAL [2, 5]: 0.35 ± 0.09* 10^9/L
- Neutrophils in BAL [2, 5]: 0.36 ± 0.09 10^9/L
- Cytosis in BAL [2, 6]: 12.8 ± 0.2* 10^9/L
- Eosinophils in BAL [2, 6]: 0.45 ± 0.07*& 10^9/L
- Lymphocytes in BAL [2, 6]: 0.10 ± 0.04& 10^9/L
- Monocytes in BAL [2, 6]: 0.52 ± 0.092* 10^9/L
- Neutrophils in BAL [2, 6]: 0.19 ± 0.08 10^9/L
- Cytosis in BAL [2, 7]: 10.5 ± 0.2*& 10^9/L
- Eosinophils in BAL [2, 7]: 0.41 ± 0.10*& 10^9/L
- Lymphocytes in BAL [2, 7]: 0.13 ± 0.04& 10^9/L
- Monocytes in BAL [2, 7]: 0.43 ± 0.076* 10^9/L
- Neutrophils in BAL [2, 7]: 0.07 ± 0.01 10^9/L
- Cytosis in BAL [2, 8]: 14.6 ± 0.3* 10^9/L
- Eosinophils in BAL [2, 8]: 0.45 ± 0.12*& 10^9/L
- Lymphocytes in BAL [2, 8]: 0.15 ± 0.026*& 10^9/L
- Monocytes in BAL [2, 8]: 0.7 ± 0.16* 10^9/L
- Neutrophils in BAL [2, 8]: 0.15 ± 0.03* 10^9/L
- Response index (%) ([3]; 0.3 mg/kg intragastric once daily on days 8-17): 74.4 ± 7.3*& %
- Response index (%) ([3]; 3 mg/kg intragastric once daily on days 8-17): 69.5 ± 8.2*& %
- Response index (%) ([3]; 30 mg/kg intragastric once daily on days 8-17): 69.1 ± 8*& %
- The number of animals with moderate bronchospasm (without acute phase, with subacute phase, with breath management) ([4]; 0.045 mg/kg): 1
- The number of animals with moderate bronchospasm (without acute phase, with subacute phase, without breath management) ([4]; 0.045 mg/kg): 2
- The number of animals with severe bronchospasm (in acute and subacute phase) ([4]; 0.045 mg/kg): 0
- The number of animals without bronchospasm ([4]; 0.045 mg/kg): 5
- The number of animals with moderate bronchospasm (without acute phase, with subacute phase, with breath management) ([4]; 0.14 mg/kg): 1
- The number of animals with moderate bronchospasm (without acute phase, with subacute phase, without breath management) ([4]; 0.14 mg/kg): 0
- The number of animals with severe bronchospasm (in acute and subacute phase) ([4]; 0.14 mg/kg): 0
- The number of animals without bronchospasm ([4]; 0.14 mg/kg): 7
- The number of animals with moderate bronchospasm (without acute phase, with subacute phase, with breath management) ([4]; 14 mg/kg): 0
- The number of animals with moderate bronchospasm (without acute phase, with subacute phase, without breath management) ([4]; 14 mg/kg): 2
- The number of animals with severe bronchospasm (in acute and subacute phase) ([4]; 14 mg/kg): 1
- The number of animals without bronchospasm ([4]; 14 mg/kg): 5
